Measurements published in PMC5374622, “Morintides: cargo-free chitin-binding peptides from Moringa oleifera” (BMC Plant Biology, 2017).
Positions of bridges follow the written chain, without caps; N, C: chain ends. Non-standard residues stand in square brackets, D forms with d. No end group written: not given here. pGlu = O=C1CC[C@@H](C(=O)O)N1

How the values were obtained:
[1] = format: physicochemical
Description: Purified mO1 (40 μg) was dissolved in water and incubated at 100 °C for 1 h. A linear peptide RV-14 ([…]) synthesized in our laboratory was used as a control. After incubation, the samples were subjected to RP-UPLC to assess the presence and extent of degradation.

Vero cells = experiment: Cytotoxicity assay (PrestoBlue cell viability); format: cell-based; details: concentrations up to 100 μM (1–100 μM), 24 h, DMEM 10% FBS, absorbance 570 nm
Description: The cytotoxic effect of morintide, mO1 (1–100 μM) was tested on Vero cells (5 × 10^4 cells/ml) in Dulbecco’s modified Eagle’s medium (DMEM) supplemented with 10% fetal bovine serum (FBS) and 1% penicillin/streptomycin (PS). Vero cells (ATCC CCL-81) were a kind gift from Dr Liu Ding Xiang (School of Biological Sciences, Nanyang Technological University, Singapore). After 24 h of incubation, 10 μl of PrestoBlue® Cell Viability Reagent (Invitrogen, USA) was added to the wells and incubated at 37 °C for 1 h. After incubation, the absorbance was measured at 570 nm using a microplate reader.

[2] = tested on: Alternaria brassiciola (CICC 2646); experiment: Disc diffusion assay; format: cell-based; details: 17.5 to 70 μg mO1 on 6 mm discs, PDA plates, 24 h at 25 °C
Description: (§1) The susceptibility of seven fungal strains obtained from the China Center of Industrial Culture Collection (CICC), namely, Curvularia lunata (CICC 40301), Fusarium oxysporum (CICC 2532), Aspergillus niger (CICC 2089), Verticillium dahilae (CICC 2534), Rhizoctonia solani (CICC 40259), Alternaria alternata (CICC 2465) and Alternaria brassiciola (CICC 2646) to mO1 (17.5 to 70 μg) was tested using a disc diffusion assay. Potato dextrose agar (PDA) plates were used to grow C. lunata, R. solani, V. dahilae A. alternata, and A. brassiciola (A. niger was grown on malt extract (ME) agar plates) at 25 °C. When sufficient growth was observed, the mycelia were harvested by punching a hole in the growing fungi and transferring it to a new agar plate. The plate was incubated at 25 °C for 48 h to 72 h to allow formation of a radial mycelial colony. 6 mm discs impregnated with 20 μL of mO1 were placed equidistant (1 cm) from the growing ends of the mycelia and incubated for 24 h at 25 °C. Deionized water was used as a negative control. Formation of arc-shaped inhibition zones indicated susceptibility to mO1.

[3] = tested on: Alternaria alternata (CICC 2465); experiment: Disc diffusion assay; format: cell-based; details: 17.5 to 70 μg mO1 on 6 mm discs, PDA plates, 24 h at 25 °C
Description: as §1

[4] = Proteolytic enzyme stability assay, carboxypeptidase A; format: in vitro ADME; details: isolated enzyme carboxypeptidase, 50 mM Tris-HCl with 100 mM NaCl pH 7.5, 37 °C, peptide:enzyme 50:1 (w/w), RP-UPLC area under the curve, MALDI-TOF MS, read-out: peptide remained intact after carboxypeptidase A treatment
Description: (§2) Purified mO1 was incubated at 37 °C with pepsin or carboxypeptidase A in 100 mM sodium citrate (pH 4.5) or 50 mM Tris–HCl with 100 mM NaCl (pH 7.5) at a final peptide to enzyme ratio (w/w) of 20:1 and 50:1, respectively. At each time point (0, 2, 4, 6 h) 50 μL of the sample was injected into the UPLC system, and the mass of peaks collected were analyzed by MALDI-TOF MS. A linear peptide WV-14 (WRLYRGRLYRRNHV) synthesized in-house was used as a control.

[5] = Chitin binding assay with chitin beads
Description: Purified morintide (mO1) was incubated with chitin beads (New England Biolabs, Massachusetts, […]) in chitin binding buffer (140 mM NaCl, 10 mM Tris EDTA 1 mM; pH 8.0; then, 0.1% (v/v) Tween 20 was added) at 4 °C for 4 h. At each time point, the beads were centrifuged at 12,000 g for 1 min and the absorbance of the supernatant was read at 280 nm to assess binding. Elution of the bound peptide was performed using two methods. In the first method, 0.5 M acetic acid and heating at 100 °C for 30 min and 1 h was used, and in the second method, four elution buffers (10 mM Tris, 1 mM EDTA, 0.1% (v/v) Tween 20; pH 8.0) with increasing concentration of sodium chloride (300 mM, 500 mM, 700 mM, and 1 M) were used. Reduced and alkylated mO1 was used as a control. Supernatants were further analyzed by UPLC and MALDI-TOF to assess binding and elution.

[6] = Proteolytic enzyme stability assay, pepsin; format: in vitro ADME; details: isolated enzyme pepsin, 100 mM sodium citrate pH 4.5, 37 °C, peptide:enzyme 20:1 (w/w), RP-UPLC area under the curve, MALDI-TOF MS, read-out: peptide remained intact after pepsin treatment
Description: as §2

**Q.** For “RLYRRGRLYRRNHV [RV-14, linear peptide synthesized in the authors' laboratory, control in the thermal stability assay, reference compound]”, which “peptide degraded on heating” value [1] is on record?
**A.** The value was “More than 50%”.

**Q.** What does the source list for “[pGlu]NCGRQAGNRACANQLCCSQYGFCGSTSEYCSRANGCQSNCRG (disulfide 3-18, 12-24, 17-31, 37-41) [mO1]”?
**A.** cytotoxic effect on Vero cells (Vero cells): No significant cytotoxic effect; susceptibility (crescent-/arc-shaped inhibition zones) [2]: susceptible; susceptibility (crescent-/arc-shaped inhibition zones) [3]: susceptible; remaining at 6 h [4]: > 95%; time for elution from chitin beads with 0.5 M acetic acid with heating at 100 °C ([5]; 0.5 M acetic acid, 100 °C, RP-UPLC): 1 h; elution from chitin beads with elution buffers with up to 1 M NaCl ([5]; elution buffers 10 mM Tris, 1 mM EDTA, 0.1% Tween 20, pH 8.0 with 300 mM, 500 mM, 700 mM, 1 M NaCl): could not be eluted; time for elution from chitin beads in acidic conditions at high temperature ([5]; legend of Figure S2, acidic conditions at high temperature): 30 min; remaining at 6 h [6]: > 95%; peptide remained intact after heating ([1]; 40 μg in water, 100 °C for 1 h, area under the curve of RP-UPLC chromatograms): more than 95%
